System: stable U20S reporter cells harboring Per2-dLuc
Experiment: Per2 assay for evaluating the potency of test compounds (circadian luciferase reporter)
Type: cell-based
Settings: amplitude of Per2-dLuc luminescence vs log concentration
Protocol: Compounds were screened by using a high-throughput circadian assay system as previously described in Zhang, E. E. et al. Cell, 2009, 139, 199-210. In brief, stable U20S reporter cells harboring Per2-dLuc were plated at a density of 30,000 cells/well in Corning 96-well, solid white, flat bottom, TC-treated microplates (Corning®), and incubated for 48 hours at 37° C. in the presence of 5% CO2 in a medium of Dulbecco's Modified Eagle Medium (DMEM) supplemented with 10% fetal bovine serum (FBS) and penicillin (100 units/mL)-streptomycin (100 μg/mL). […] DMSO stocks are then serially diluted in DMSO, typically diluting 3-fold for each dilution step. Following the 48 h period, cell culture medium is removed from plated cells and cells are synchronized with 200 μL/well of complete cell culture medium (described above), supplemented with 5 μM forskolin (Tocris®) and 1 mM beetle luciferin (Promega®). Immediately following synchronization, 1 μL of compound dilution is added to each well. Plates are sealed, shaken briefly, and gene expression was monitored by measuring luminescence (Tecan® Infinite M200 or Tecan® Infinite M200 Pro) continuously for a minimum of 3 days at 35° C. Raw luminescence data (counts) are first analyzed using Multicycle™ software (Actimetrics, Inc.) to determine the amplitude (amp), period, and phase (phz) for each compound concentration. The period length for control wells (i.e. no compound, DMSO only) should be 26-30 h. Amp data are then plotted against the logarithm compound concentration (M) and analyzed by nonlinear regression analysis to determine the EC50.

| SMILES | EC50 |
| --- | --- |
| CC(O)(CN1CCCCC1=O)Cn1c2ccc(F)cc2c2cc(F)ccc21 (centres unmarked) [Compound 5, 1-(3-(3,6-difluoro-9H-carbazol-9-yl)-2-hydroxy-2-methylpropyl)piperidin-2-one] | 0.536 µM |
| C[C@H]1CCC(=O)N(C[C@H](O)Cn2c3ccc(F)cc3c3cc(F)ccc32)C1 [Compound 130, (S)-1-((R)-3-(3,6-difluoro-9H-carbazol-9-yl)-2-hydroxypropyl)-5-methylpiperidin-2-one] | 0.895 µM |
| CC1CCC(=O)N(CC(O)Cn2c3ccc(F)cc3c3cc(F)ccc32)C1 (centres unmarked) [Compound 37, 1-(3-(3,6-difluoro-9H-carbazol-9-yl)-2-hydroxypropyl)-5-methylpiperidin-2-one] | 0.224 µM |
| O=C1C(C2CCCC2)CCCN1CC(O)Cn1c2ccc(F)cc2c2cc(F)ccc21 (centres unmarked) [Compound 23, 3-cyclopentyl-1-(3-(3,6-difluoro-9H-carbazol-9-yl)-2-hydroxypropyl)piperidin-2-one] | 0.399 µM |
| CCC1CC(=O)N(CC(O)Cn2c3ccc(F)cc3c3cc(F)ccc32)C1 (centres unmarked) [Compound 45, 1-(3-(3,6-difluoro-9H-carbazol-9-yl)-2-hydroxypropyl)-4-ethylpyrrolidin-2-one] | 0.052 µM |
| C[C@H]1CCN(C[C@H](O)Cn2c3ccccc3c3ccccc32)C1=O [Compound 117, (S)-1-((R)-3-(9H-carbazol-9-yl)-2-hydroxypropyl)-3-methylpyrrolidin-2-one] | 0.188 µM |
| O=C1COCCN1CC(O)Cn1c2ccc(F)cc2c2cc(F)ccc21 (centres unmarked) [Compound 55, 4-(3-(3,6-difluoro-9H-carbazol-9-yl)-2-hydroxypropyl)morpholin-3-one] | 0.738 µM |
| CC1CCCN(CC(O)Cn2c3ccccc3c3ccccc32)C1=O (centres unmarked) [Compound 64, 1-(3-(9H-carbazol-9-yl)-2-hydroxypropyl)-3-methylpiperidin-2-one] | 0.462 µM |
| C[C@@H]1CCN(C[C@H](O)Cn2c3ccc(F)cc3c3cc(F)ccc32)C1=O [Compound 116, (R)-1-((R)-3-(3,6-difluoro-9H-carbazol-9-yl)-2-hydroxypropyl)-3-methylpyrrolidin-2-one] | 0.311 µM |
| O=C1N(CC(O)Cn2c3ccccc3c3ccccc32)CCN1C1CC1 (centres unmarked) [Compound 97, 1-(3-(9H-carbazol-9-yl)-2-hydroxypropyl)-3-cyclopropylimidazolidin-2-one] | 0.315 µM |
| O=C1N(CC(O)Cn2c3ccccc3c3ccccc32)CCCC1(F)F (centres unmarked) [Compound 69, 1-(3-(9H-carbazol-9-yl)-2-hydroxypropyl)-3,3-difluoropiperidin-2-one] | 0.137 µM |
| COC1CCCN(CC(O)Cn2c3ccccc3c3ccccc32)C1=O (centres unmarked) [Compound 60, 1-(3-(9H-carbazol-9-yl)-2-hydroxypropyl)-3-methoxypiperidin-2-one] | 0.331 µM |
| CC1CCN(CC(C)(O)Cn2c3ccc(F)cc3c3cc(F)ccc32)C(=O)C1 (centres unmarked) [Compound 36, 1-(3-(3,6-difluoro-9H-carbazol-9-yl)-2-hydroxy-2-methylpropyl)-4-methylpiperidin-2-one] | 0.76 µM |
| CC1CCN(CC(O)Cn2c3ccc(F)cc3c3cc(F)ccc32)C(=O)N1C (centres unmarked) [Compound 101, 1-(3-(3,6-difluoro-9H-carbazol-9-yl)-2-hydroxypropyl)-3,4-dimethyltetrahydropyrimidin-2(1H)-one] | 0.417 µM |
| O=C1N(CC(O)Cn2c3ccc(F)cc3c3cc(F)ccc32)CCCN1C1CCCCC1 (centres unmarked) [Compound 74, 1-cyclohexyl-3-(3-(3,6-difluoro-9H-carbazol-9-yl)-2-hydroxypropyl)tetrahydropyrimidin-2(1H)-one] | 0.284 µM |
| C[C@@](O)(CN1CC[C@H](F)C1=O)Cn1c2ccccc2c2ccccc21 [Compound 124, (S)-1-((S)-3-(9H-carbazol-9-yl)-2-hydroxy-2-methylpropyl)-3-fluoropyrrolidin-2-one] | 0.309 µM |
| O=C1NCCN1CC(O)Cn1c2ccccc2c2ccccc21 (centres unmarked) [Compound 84, 1-(3-(9H-carbazol-9-yl)-2-hydroxypropyl)imidazolidin-2-one] | 0.325 µM |
| C[C@@H]1CCN(C[C@H](O)Cn2c3ccccc3c3ccccc32)C1=O [Compound 118, (R)-1-((R)-3-(9H-carbazol-9-yl)-2-hydroxypropyl)-3-methylpyrrolidin-2-one] | 0.12 µM |
| O=C1C(c2ccccc2)CCCN1CC(O)Cn1c2ccc(F)cc2c2cc(F)ccc21 (centres unmarked) [Compound 19, 1-(3-(3,6-difluoro-9H-carbazol-9-yl)-2-hydroxypropyl)-3-phenylpiperidin-2-one] | 0.547 µM |

| SMILES | EC50 |
| --- | --- |
| C[C@@H]1CN(C[C@H](O)Cn2c3ccc(F)cc3c3cc(F)ccc32)C(=O)N1 [Compound 136, (R)-1-((R)-3-(3,6-difluoro-9H-carbazol-9-yl)-2-hydroxypropyl)-4-methylimidazolidin-2-one] | 0.826 µM |
| CC(O)(CN1CCOCC1=O)Cn1c2ccc(F)cc2c2cc(F)ccc21 (centres unmarked) [Compound 56, 4-(3-(3,6-difluoro-9H-carbazol-9-yl)-2-hydroxy-2-methylpropyl)morpholin-3-one] | 1.06 µM |
| O=C1C(F)CCCN1CC(O)Cn1c2ccccc2c2ccccc21 (centres unmarked) [Compound 70, 1-(3-(9H-carbazol-9-yl)-2-hydroxypropyl)-3-fluoropiperidin-2-one] | 0.061 µM |
| CC1CCCN(CC(C)(O)Cn2c3ccc(F)cc3c3cc(F)ccc32)C1=O (centres unmarked) [Compound 28, 1-(3-(3,6-difluoro-9H-carbazol-9-yl)-2-hydroxy-2-methylpropyl)-3-methylpiperidin-2-one] | 0.824 µM |
| CC1CC(=O)N(CC(C)(O)Cn2c3ccc(F)cc3c3cc(F)ccc32)C1 (centres unmarked) [Compound 44, 1-(3-(3,6-difluoro-9H-carbazol-9-yl)-2-hydroxy-2-methylpropyl)-4-methylpyrrolidin-2-one] | 1.06 µM |
| CC(O)(CN1CCCN(c2ccccc2)C1=O)Cn1c2ccc(F)cc2c2cc(F)ccc21 (centres unmarked) [Compound 79, 1-(3-(3,6-difluoro-9H-carbazol-9-yl)-2-hydroxy-2-methylpropyl)-3-phenyltetrahydropyrimidin-2(1H)-one] | 0.923 µM |
| CC(O)(CN1CCCN(C2CCCCC2)C1=O)Cn1c2ccc(F)cc2c2cc(F)ccc21 (centres unmarked) [Compound 82, 1-cyclohexyl-3-(3-(3,6-difluoro-9H-carbazol-9-yl)-2-hydroxy-2-methylpropyl)tetrahydropyrimidin-2(1H)-one] | 1.19 µM |
| C[C@@H]1CCC(=O)N(C[C@H](O)Cn2c3ccc(F)cc3c3cc(F)ccc32)C1 [Compound 134, (R)-1-((R)-3-(3,6-difluoro-9H-carbazol-9-yl)-2-hydroxypropyl)-5-methylpiperidin-2-one] | 0.397 µM |
| CCC1CCC(=O)N1CC(C)(O)Cn1c2ccc(F)cc2c2cc(F)ccc21 (centres unmarked) [Compound 33, 1-(3-(3,6-difluoro-9H-carbazol-9-yl)-2-hydroxy-2-methylpropyl)-5-ethylpyrrolidin-2-one] | 0.625 µM |
| C[C@@H]1CCC(=O)N1C[C@H](O)Cn1c2ccc(F)cc2c2cc(F)ccc21 [Compound 109, (R)-1-((R)-3-(3,6-difluoro-9H-carbazol-9-yl)-2-hydroxypropyl)-5-methylpyrrolidin-2-one] | 0.226 µM |
| CC(C)N1CCN(CC(O)Cn2c3ccccc3c3ccccc32)C1=O (centres unmarked) [Compound 98, 1-(3-(9H-carbazol-9-yl)-2-hydroxypropyl)-3-isopropylimidazolidin-2-one] | 0.269 µM |
| O=C1C(C2CCCC2)CCN1CC(O)Cn1c2ccc(F)cc2c2cc(F)ccc21 (centres unmarked) [Compound 18, 3-cyclopentyl-1-(3-(3,6-difluoro-9H-carbazol-9-yl)-2-hydroxypropyl)pyrrolidin-2-one] | 0.338 µM |
| O=C1C(F)CCCN1CC(O)Cn1c2ccc(F)cc2c2cc(F)ccc21 (centres unmarked) [Compound 11, 1-(3-(3,6-difluoro-9H-carbazol-9-yl)-2-hydroxypropyl)-3-fluoropiperidin-2-one] | 0.12 µM |
| O=C1[C@H]2CC[C@H](C2)N1C[C@H](O)Cn1c2ccccc2c2ccccc21 [Compound 107, (1R,4S)-2-((R)-3-(9H-carbazol-9-yl)-2-hydroxypropyl)-2-azabicyclo[2.2.1]heptan-3-one] | 0.089 µM |
| CC(O)(CN1CCCC1=O)Cn1c2ccc(F)cc2c2cc(F)ccc21 (centres unmarked) [Compound 8, 1-(3-(3,6-difluoro-9H-carbazol-9-yl)-2-hydroxy-2-methylpropyl)pyrrolidin-2-one] | 0.527 µM |
| C[C@@H]1CCC(=O)N1C[C@H](O)Cn1c2ccccc2c2ccccc21 [Compound 111, (R)-1-((R)-3-(9H-carbazol-9-yl)-2-hydroxypropyl)-5-methylpyrrolidin-2-one] | 0.095 µM |
| CC(C)N1CCCN(CC(C)(O)Cn2c3ccc(F)cc3c3cc(F)ccc32)C1=O (centres unmarked) [Compound 80, 1-(3-(3,6-difluoro-9H-carbazol-9-yl)-2-hydroxy-2-methylpropyl)-3-isopropyltetrahydropyrimidin-2(1H)-one] | 1.1 µM |
| CC1CCC(=O)N1CC(C)(O)Cn1c2ccc(F)cc2c2cc(F)ccc21 (centres unmarked) [Compound 35, 1-(3-(3,6-difluoro-9H-carbazol-9-yl)-2-hydroxy-2-methylpropyl)-5-methylpyrrolidin-2-one] | 0.678 µM |
| O=C1CCCCN1CC(O)Cn1c2ccccc2c2ccccc21 (centres unmarked) [Compound 1, 1-(3-(9H-carbazol-9-yl)-2-hydroxypropyl)piperidin-2-one] | 0.171 µM |

— patent US10214507B2, “Carbazole-containing amides, carbamates, and ureas as cryptochrome modulators” (Reset Therapeutics, Inc., priority 2014, dated 2019)
